Series [1] is described as follows: Partition coefficient, log P of the compound. The following applies: octanol/water. The format is physicochemical.
Series [2] concerns Bacillus cereus. The series is described as follows: Antibacterial activity against Bacillus cereus 709 Roma after 18 to 24 hrs by double microdilution method. The format is functional. (In general: Dilution methods test growth across graded concentrations, often in twofold steps.)
Series [3] deals with Mycolicibacterium smegmatis. As to the kind of experiment: Antibacterial activity against Mycobacterium smegmatis ATCC 607 after 48 to 72 hrs by double microdilution method. The format is functional.
For series [4], the system named is Escherichia coli. As to the kind of experiment: Antibacterial activity against Escherichia coli ATCC 35218 after 18 to 24 hrs by double microdilution method. The format is functional.
The subject of series [5] is Enterococcus faecalis. As to the kind of experiment: Antibacterial activity against Enterococcus faecalis ATCC 29212 after 18 to 24 hrs by double microdilution method. The format is functional.
Series [6] concerns Yersinia pseudotuberculosis. As to the kind of experiment: Antibacterial activity against Yersinia pseudotuberculosis ATCC 911 after 18 to 24 hrs by double microdilution method. The format is functional.
Series [7] relates to Pseudomonas aeruginosa. The series is described as follows: Antibacterial activity against Pseudomonas aeruginosa ATCC 10145 after 18 to 24 hrs by double microdilution method. The format is functional.
For series [8], the system named is Staphylococcus aureus. As to the kind of experiment: Antibacterial activity against Staphylococcus aureus ATCC 25923 after 18 to 24 hrs by double microdilution method. The format is functional.
The subject of series [9] is Staphylococcus epidermidis. As to the kind of experiment: Antibacterial activity against Staphylococcus epidermidis ATCC 12228 by agar dilution method. The format is functional. (Agar dilution tests growth on a series of plates holding different concentrations.)
Series [10] concerns Pseudomonas aeruginosa. As to the kind of experiment: Antibacterial activity against Pseudomonas aeruginosa ATCC 9027 by agar dilution method. The format is functional.
Series [11] concerns Klebsiella pneumoniae. The series is described as follows: Antibacterial activity against Klebsiella pneumoniae ATCC 10031 by agar dilution method. The format is functional.
Series [12] deals with Bacillus subtilis. The series is described as follows: Antibacterial activity against Bacillus subtilis PTCC 1023 by agar dilution method. The format is functional.
The test system of series [13] is Escherichia coli. The series is described as follows: Antibacterial activity against Escherichia coli ATCC 8739 by agar dilution method. The format is functional.
In series [14] the test system is Staphylococcus aureus. The series is described as follows: Antibacterial activity against Staphylococcus aureus ATCC 6538P by agar dilution method. The format is functional.
Series [15] deals with Escherichia coli. The series is described as follows: Antibacterial activity against Escherichia coli ATCC […] by CLSI agar dilution method. The format is functional.
For series [16], the system named is Staphylococcus aureus. The series is described as follows: Antibacterial activity against methicillin-sensitive Staphylococcus aureus by CLSI agar dilution method. The format is functional.
For series [17], the system named is Staphylococcus aureus. As to the kind of experiment: Antibacterial activity against Staphylococcus aureus ATCC 29213 by CLSI agar dilution method. The format is functional.
Series [18] relates to Staphylococcus epidermidis. As to the kind of experiment: Antibacterial activity against Staphylococcus epidermidis ATCC 12228 by CLSI agar dilution method. The format is functional.
The test system of series [19] is Klebsiella pneumoniae. As to the kind of experiment: Antibacterial activity against Klebsiella pneumoniae ATCC […] by CLSI agar dilution method. The format is functional.
Series [20] concerns Staphylococcus epidermidis. The series is described as follows: Antibacterial activity against methicillin-sensitive Staphylococcus epidermidis by CLSI agar dilution method. The format is functional.
The subject of series [21] is Escherichia coli. The series is described as follows: Antibacterial activity against Escherichia coli ATCC 25922 after 18 to 24 hrs by double microdilution method. The format is functional.
For series [22], the system named is Pseudomonas aeruginosa. As to the kind of experiment: Antibacterial activity against Pseudomonas aeruginosa ATCC 43288 after 18 to 24 hrs by double microdilution method. The format is functional.

Converted amounts (≈) assume the structure as drawn.

Turning to `COC(=O)c1cn(C2CC2)c2cc(N3CCNCC3)c(F)cc2c1=O`, in series [1], the logP (in general, the decadic logarithm of the partition coefficient of the neutral form, usually between octanol and water) was -0.441.

In series [1], `CCCOC(=O)c1cn(C2CC2)c2cc(N3CCNCC3)c(F)cc2c1=O` yielded a logP of 0.437.

Regarding `CCn1c(CN2CCN(c3ccccc3OC)CC2)nn(CN2CCN(c3cc4c(cc3F)c(=O)c(C(=O)O)cn4C3CC3)CC2)c1=S`, the MIC in series [2], in series [3], in [4], in series [5], in series [6] and in [7] was less than 0.24 µg/mL in each case. Also, in series [8], the MIC (commonly the lowest concentration that inhibits growth of the organism) is less than 0.24 µg/mL.

For `O=C(O)c1cn(C2CC2)c2cc(N3CCN(c4nnc(-c5ccc([N+](=O)[O-])s5)s4)CC3)c(F)cc2c1=O`, the MIC in series [9] was 0.008 to 0.015 µg/mL (≈ 0.0147 to 0.0276 µM); in [10] it was 2 to 64 µg/mL (≈ 3.69 to 118 µM); in [11] it was 2 to 64 µg/mL (≈ 3.69 to 118 µM); in series [12] it was 0.008 to 0.015 µg/mL (≈ 0.0147 to 0.0276 µM); in series [13] it was 2 to 64 µg/mL (≈ 3.69 to 118 µM); in [14] it was 0.008 to 0.015 µg/mL (≈ 0.0147 to 0.0276 µM).

With `CCOC(=O)c1cn(C2CC2)c2cc(N3CCNCC3)c(F)cc2c1=O` [CIPROFLOXACIN ETHYL ESTER], in [1], the lipophilicity (logP) is -0.065.

For the compound `O=C(O)c1cn(C2CC2)c2cc(N3CCN(CC(O)Cn4cc([N+](=O)[O-])nc4Cl)CC3)c(F)cc2c1=O` (stereo unspecified), the MIC in [15], in [16], in series [17], in series [18], in series [19] and in [20] was 2 to 32 µg/mL (≈ 3.74 to 59.8 µM) in each case.

On to `CCn1c(CNc2ccc(N3CCN(c4ccc(F)cc4)CC3)c(F)c2)nn(CN2CCN(c3cc4c(cc3F)c(=O)c(C(=O)O)cn4C3CC3)CC2)c1=S`, for which the minimal inhibitory concentration (MIC) in series [2], in series [3], in series [4], in series [5], in [6] and in [7] was less than 0.24 µg/mL in each case. Moreover, in series [8], the minimum inhibitory concentration (MIC) is less than 0.24 µg/mL.

Turning to `CC1(C)S[C@@H]2[C@H](NC(=O)[C@H](N)c3ccccc3)C(=O)N2[C@H]1C(=O)O` [AMPICILLIN], the MIC in series [2] lay in the range of 10 to 128 µg/mL (≈ 28.6 to 366 µM); in series [3], 10 to 128 µg/mL (≈ 28.6 to 366 µM); in series [21], 10 to 128 µg/mL (≈ 28.6 to 366 µM); in [4], 3.9 to 250 µg/mL (≈ 11.2 to 715 µM); in [5], 10 to 128 µg/mL (≈ 28.6 to 366 µM); in series [6], 10 to 128 µg/mL (≈ 28.6 to 366 µM). The figures for the minimum inhibitory concentration (MIC) in [7], in series [8] and in [22] were 3.9 to 250 µg/mL (≈ 11.2 to 715 µM), 10 to 128 µg/mL (≈ 28.6 to 366 µM) and 10 to 128 µg/mL (≈ 28.6 to 366 µM), respectively.

`Cn1c([N+](=O)[O-])cnc1-c1nnc(N2CCN(c3cc4c(cc3F)c(=O)c(C(=O)O)cn4C3CC3)CC2)s1`: the MIC fell in the range of 0.008 to 0.015 µg/mL (≈ 0.0148 to 0.0278 µM) in [9]; 2 to 64 µg/mL (≈ 3.7 to 118 µM) in series [10]; 2 to 64 µg/mL (≈ 3.7 to 118 µM) in [11]; 0.008 to 0.015 µg/mL (≈ 0.0148 to 0.0278 µM) in series [12]; 2 to 64 µg/mL (≈ 3.7 to 118 µM) in series [13]; 0.008 to 0.015 µg/mL (≈ 0.0148 to 0.0278 µM) in [14].

As to `O=C(O)c1cn(C2CC2)c2cc(N3CCN(Cn4nc(CNc5ccc(N6CCN(c7ccc(F)cc7)CC6)c(F)c5)n(Cc5ccccc5)c4=S)CC3)c(F)cc2c1=O`, the minimum inhibitory concentration (MIC) in [2], in [3], in series [4], in [5], in [6] and in series [7] was less than 0.24 µg/mL in each case. In addition, the minimal inhibitory concentration (MIC) in [8] was less than 0.24 µg/mL.
